Assays:
[1] = AFM of peptide alone (self-aggregation / fibril formation); assay type: physicochemical
Procedure: Samples labeled with hIAPP contained 40 μM hIAPP. The sample with pramlintide and hIAPP contained a 2:1 molar mixture (80 μM Pramlintide mixed with 40 μM hIAPP). The samples with raccoon IAPP and Pramlintide alone contained 40 μM of the indicated peptides. Each sample was incubated for 40 minutes at 37° C. with shaking; conditions known to promote hIAPP amyloid formation. All scans show raw data with no flattening and are […].
Samples of hIAPP with or without animal IAPP were prepared as described in Example 1 and were then incubated with shaking at 37° C. for 40 minutes. After this incubation, 17 μL of each sample was deposited onto freshly cleaved mica. Samples were incubated for 5 minutes at room temperature before washing with 200 μL sterile water. After drying, the samples were scanned using an MFP-3D atomic force microscope (Asylum Research) set on A/C mode and a 240 m silicon cantilever (Olympus).
Many of the animal IAPP variants are known to likewise form fibrils and yield amyloid-plaques when scanned via AFM. […] This is in spite of the fact that all of these IAPP peptides (except polar bear IAPP) are known to aggregate and form fibrils themselves under these or similar conditions

[2] = system: RIN-m cells; assay: MTT viability assay, peptide alone or mixed with hIAPP; assay type: cell-based
Summary of the method: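 RIN-m cells were exposed to hIAPP alone, each animal IAPP peptide alone, or hIAPP mixed with an animal IAPP for 46 h at 37° C in RPMI-1640 with 10% FBS. Viability by MTT reduction (2 h), formazan solubilized in SDS/DMF and read at 570 nm, relative to untreated cells as 100%.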

SMILES: CC[C@H](C)[C@H](NC(=O)[C@@H]1CCCN1C(=O)CNC(=O)[C@H](Cc1ccccc1)NC(=O)[C@H](CC(N)=O)NC(=O)[C@H](CC(N)=O)NC(=O)[C@H](CO)NC(=O)[C@H](CO)NC(=O)[C@H](Cc1c[nH]cn1)NC(=O)[C@@H](NC(=O)[C@H](CC(C)C)NC(=O)[C@H](Cc1ccccc1)NC(=O)[C@H](CC(N)=O)NC(=O)[C@H](C)NC(=O)[C@H](CC(C)C)NC(=O)[C@H](CCCNC(=N)N)NC(=O)[C@H](CCC(N)=O)NC(=O)[C@@H](NC(=O)[C@H](C)NC(=O)[C@@H]1CSSC[C@H](NC(=O)[C@@H](N)CCCCN)C(=O)N[C@@H](CC(N)=O)C(=O)N[C@@H]([C@@H](C)O)C(=O)N[C@@H](C)C(=O)N[C@@H]([C@@H](C)O)C(=O)N1)[C@@H](C)O)C(C)C)C(=O)N[C@@H](CC(C)C)C(=O)N1CCC[C@H]1C(=O)N1CCC[C@H]1C(=O)N[C@H](C(=O)N[C@@H](CC(N)=O)C(=O)N[C@H](C(=O)NCC(=O)N[C@@H](CO)C(=O)N[C@@H](CC(N)=O)C(=O)N[C@H](C(=O)N[C@@H](Cc1ccc(O)cc1)C(N)=O)[C@@H](C)O)C(C)C)[C@@H](C)O [pramlintide, reference compound]
- aggregation propensity relative to comparator ([1]; comparison of pramlintide with the IAPP peptides): more amyloidogenic than the present IAPP peptides
- aggregation / fibril formation of peptide alone, AFM ([1]; peptide alone, incubated 40 minutes at 37° C. with shaking): formed amyloid fibers
- rescue / protection of cells from hIAPP toxicity (words) ([2]; hIAPP mixed with peptide 1:1, MTT assay): no ability to protect cells from the toxic effects of hIAPP
- toxicity of peptide to cells ([2]; peptide alone, MTT assay, pancreatic (RIN-m) cells): toxic to the cells

From US12522635B2, “Amyloid peptide variants” (Loyola Marymount University, priority 2019, dated 2026)
